Results as given in US20050209198A1, “Pharmaceutical composition comprising a bisphosphonate and a cox-2 inhibitor for the treatment of bone diseases” (priority 2002, published 2005).

Experiments:
[1] = test system: patients with postmenopausal osteoporosis; assay: 24 months trial of iv zoledronic acid, bone mineral density (BMD) by DEXA; format: in vivo; details: bolus iv, dose administration as infrequent as every 6 or 12 months, compared to placebo
Method: (§1) A dose and dose regimen-finding 24 months trial of iv zoledronic acid in patients with postmenopausal osteoporosis is carried out. Three hundred and fifty one patients are randomized to six study arms. […] All patients are evaluated at baseline and in 3-monthly visits. Zoledronic acid or placebo was administered as a bolus iv injection into a peripheral vein over 5 minutes at every visit. Patients from both zoledronic acid treated and placebo groups also receive an oral COX-2 inhibitor (5-methyl-2-(2′-chloro-6′-fluoroanilino)phenylacetic acid—400 mg per day p.o.) or oral placebo.
(§2) Efficacy is ascertained by measurement of percent change from baseline in bone mineral density (BMD) measured by dual energy X-ray absorptiometry (DEXA) as compared to placebo, at 6, 9, and 12 months. Patients also maintain records of pain scores on a once weekly basis and are monitored for pain scores at the 3-monthly visits.
• Placebo • 0.25 mg zoledronic acid every 3 months • 0.5 mg zoledronic acid every 3 months • 1.0 mg zoledronic acid every 3 months • 2.0 mg zoledronic acid every 6 months • 4.0 mg zoledronic acid every 12 months each with 50% COX-2 treatment and 50% oral placebo.

[2] = test system: patients with postmenopausal osteoporosis; assay: Pain scores and general well being in the same trial, oral COX-2 inhibitor vs oral placebo; format: in vivo; details: 400 mg per day p.o. vs oral placebo, on zoledronic acid or placebo background
Method: as §1, §2

Row | Structure (SMILES) | bone mineral density (BMD), bone mass change [1] | pain scores and general well being of patients [2]
1 | O=P(O)(O)C(O)(Cn1ccnc1)P(=O)(O)O [zoledronic acid, 1-hydroxy-2-(imidazol-1-yl)ethane-1,1-diphosphonic acid] | statistically significant and medically relevant bone mass increase | –
2 | Cc1ccc(Nc2c(F)cccc2Cl)c(CC(=O)O)c1 [COX-2, 5-methyl-2-(2′-chloro-6′-fluoroanilino)phenylacetic acid] | – | show improvement over the oral placebo treated groups
